Assay results as given in DBAASP.
Converted amounts (≈) assume the structure as drawn.

Key:
Experiment in all cases: ≥ marks a high value that may be exact or a test limit, other limits are often not marked, values filed in µg/mL are converted to µM
[1] = tested on: Staphylococcus aureus ATCC 2592
[2] = tested on: Candida albicans ATCC 2002
[3] = tested on: Pseudomonas aeruginosa PAO1
[4] = tested on: Staphylococcus aureus ATCC 43300
[5] = tested on: Bacillus subtilis
[6] = tested on: Pseudomonas aeruginosa ATCC 27853
[7] = tested on: Escherichia coli ML-35p
[8] = tested on: Escherichia coli ATCC 25726
[9] = tested on: Staphylococcus aureus ATCC 25923
[10] = tested on: Candida albicans ATCC 90028
[11] = tested on: Escherichia coli ATCC 25922
[12] = tested on: Staphylococcus aureus NCTC 8325
[13] = tested on: Acinetobacter baumannii
[14] = tested on: Escherichia coli B
[15] = tested on: Staphylococcus aureus
[16] = tested on: Bacillus subtilis 168
[17] = tested on: Candida albicans F7-39/IDE99
[18] = tested on: Pseudomonas aeruginosa
[19] = tested on: Micrococcus luteus ATCC 9341

Question: With CC[C@H](C)[C@H](NC(=O)CNC(=O)[C@@H](NC(=O)[C@H](C)NC(=O)[C@H](CCSC)NC(=O)[C@H](CCCCN)NC(=O)[C@@H](NC(=O)[C@@H](NC(=O)[C@@H]1CCCN1C(=O)CNC(=O)[C@H](CC(C)C)NC(=O)[C@@H](N)Cc1ccccc1)[C@@H](C)CC)[C@@H](C)CC)[C@@H](C)O)C(=O)N[C@@H](CC(C)C)C(=O)N1CCC[C@H]1C(=O)N[C@H](C(=O)N[C@@H](C)C(=O)N[C@H](C(=O)N[C@H]1CSSC[C@@H](C(=O)O)NC(=O)[C@H](CCCCN)NC(=O)[C@H](CCCCN)NC(=O)[C@H](CC(C)C)NC(=O)CNC(=O)[C@H](CCCCN)NC1=O)[C@@H](C)CC)[C@@H](C)O [FLGPIIKMATGILPTAICKGLKKC] as the compound, how does the MIC [1] read?
Answer: 0.993 µM (≈ 2.5 µg/mL)

Question: What about the MIC [2] of the same compound?
Answer: 1.99 µM (≈ 5 µg/mL)

Question: What about the MIC [3] of the same compound?
Answer: 3.97 µM (≈ 9.99 µg/mL)

Question: And the MIC [4]?
Answer: 0.993 µM (≈ 2.5 µg/mL)

Question: And the MIC [5]?
Answer: 7.95 µM (≈ 20 µg/mL)

Question: What about the MIC [6] of the same compound?
Answer: 1.99 µM (≈ 5 µg/mL)

Question: What about the MIC [7] of the same compound?
Answer: 19.9 µM (≈ 50 µg/mL)

Question: CC[C@H](C)[C@H](NC(=O)CN)C(=O)NCC(=O)N[C@@H](CCCCN)C(=O)N[C@@H](Cc1ccccc1)C(=O)N[C@@H](CC(C)C)C(=O)N[C@@H](Cc1cnc[nH]1)C(=O)N[C@@H](CO)C(=O)N[C@@H](C)C(=O)NCC(=O)N[C@@H](CCCCN)C(=O)N[C@@H](Cc1ccccc1)C(=O)NCC(=O)N[C@@H](CCCCN)C(=O)N[C@@H](C)C(=O)N[C@@H](Cc1ccccc1)C(=O)N[C@H](C(=O)NCC(=O)N[C@@H](CCC(=O)O)C(=O)N[C@H](C(=O)N[C@@H](CCSC)C(=O)N[C@@H](CCCCN)C(=O)N[C@@H](CO)C(=O)O)[C@@H](C)CC)[C@@H](C)CC [GIGKFLHSAGKFGKAFIGEIMKS] was tested. Which MIC [8] did it give?
Answer: 12.5 µM (≈ 30.3 µg/mL)

Question: And the MIC [9]?
Answer: 50 µM (≈ 121 µg/mL)

Question: What about the MIC [10] of the same compound?
Answer: 25 µM (≈ 60.6 µg/mL)

Question: CC[C@H](C)[C@H](NC(=O)CN)C(=O)N[C@@H](CC(C)C)C(=O)N[C@@H](CO)C(=O)N[C@@H](CO)C(=O)N[C@H](C(=O)N[C@@H](CCCCN)C(=O)NCC(=O)N[C@H](C(=O)N[C@@H](C)C(=O)N[C@@H](CCCCN)C(=O)NCC(=O)N[C@H](C(=O)N[C@@H](C)C(=O)N[C@@H](CCCCN)C(=O)N[C@@H](CC(N)=O)C(=O)N[C@H](C(=O)N[C@@H](C)C(=O)N[C@@H](C)C(=O)N[C@@H](CCC(N)=O)C(=O)N[C@@H](CC(C)C)C(=O)N[C@@H](CC(C)C)C(=O)N[C@@H](CC(=O)O)C(=O)N[C@H](C(=O)N[C@@H](CC(C)C)C(=O)N[C@@H](CCCCN)C(=O)N[C@H]1CSSC[C@@H](C(=O)O)NC(=O)CNC(=O)[C@H]([C@@H](C)O)NC(=O)[C@H]([C@@H](C)CC)NC(=O)[C@H](CCCCN)NC1=O)[C@@H](C)O)C(C)C)C(C)C)C(C)C)[C@@H](C)CC [GILSSIKGVAKGVAKNVAAQLLDTLKCKITGC] was tested. Which MIC [11] did it give?
Answer: 4 µM (≈ 12.8 µg/mL)

Question: And the MIC [8]?
Answer: 6 µM (≈ 19.2 µg/mL)

Question: What about the MIC [9] of the same compound?
Answer: 6 µM (≈ 19.2 µg/mL)

Question: What about the MIC [12] of the same compound?
Answer: 4 µM (≈ 12.8 µg/mL)

Question: What about the MIC [10] of the same compound?
Answer: ≥ 62 µM

Question: Which results are given for CC[C@H](C)[C@H](NC(=O)CN)C(=O)N[C@@H](Cc1c[nH]c2ccccc12)C(=O)N[C@@H](CC(=O)O)C(=O)N[C@H](C(=O)N[C@H](C(=O)N[C@@H](CCCCN)C(=O)N[C@@H](CO)C(=O)N[C@@H](CCSC)C(=O)NCC(=O)N[C@@H](CCCCN)C(=O)N[C@H](C(=O)N[C@@H](Cc1ccccc1)C(=O)N[C@@H](C)C(=O)NCC(=O)N[C@@H](C)C(=O)N[C@H](C(=O)N[C@@H](CC(C)C)C(=O)N[C@@H](CCC(N)=O)C(=O)N[C@@H](CC(N)=O)C(=O)N[C@@H](CC(C)C)C(N)=O)[C@@H](C)CC)C(C)C)[C@@H](C)CC)[C@@H](C)O [GIWDTIKSMGKVFAGAILQNL]?
Answer: MIC [8]: ≥ 50 µM; MIC [9]: 12.5 µM (≈ 28.3 µg/mL); MIC [13]: 12.5 µM (≈ 28.3 µg/mL); MIC [10]: 25 µM (≈ 56.5 µg/mL)

Question: Which results are given for CC[C@H](C)[C@H](NC(=O)CN)C(=O)N[C@@H](Cc1c[nH]c2ccccc12)C(=O)N[C@@H](CC(=O)O)C(=O)N[C@H](C(=O)N[C@H](C(=O)N[C@@H](CCCCN)C(=O)N[C@@H](CO)C(=O)N[C@@H](CCSC)C(=O)NCC(=O)N[C@@H](CCCCN)C(=O)N[C@H](C(=O)N[C@@H](Cc1ccccc1)C(=O)N[C@@H](C)C(=O)NCC(=O)N[C@@H](CCCCN)C(=O)N[C@H](C(=O)N[C@@H](CCCCN)C(=O)N[C@@H](CCC(N)=O)C(=O)N[C@@H](CC(N)=O)C(=O)N[C@@H](CC(C)C)C(N)=O)[C@@H](C)CC)C(C)C)[C@@H](C)CC)[C@@H](C)O [GIWDTIKSMGKVFAGKIKQNL]?
Answer: MIC [8]: ≥ 50 µM; MIC [9]: > 100 µM; MIC [13]: 12.5 µM (≈ 29.2 µg/mL); MIC [10]: 25 µM (≈ 58.3 µg/mL)

Question: What does the source list for CC[C@H](C)[C@H](NC(=O)[C@H](CC(C)C)NC(=O)[C@H](Cc1cnc[nH]1)NC(=O)CNC(=O)[C@H](CC(C)C)NC(=O)[C@@H](NC(=O)[C@H](CCCCN)NC(=O)[C@H](CO)NC(=O)[C@H](Cc1c[nH]c2ccccc12)NC(=O)[C@H](CCCCN)NC(=O)CN)[C@@H](C)CC)C(=O)N[C@@H](CCCN=C(N)N)C(N)=O [GKWSKILGHLIR]?
Answer: MIC [14]: 3.7 µM (≈ 5.2 µg/mL); MIC [15]: 23.3 µM (≈ 32.8 µg/mL); MIC [16]: 2 µM (≈ 2.81 µg/mL); MIC [17]: 7.4 µM (≈ 10.4 µg/mL); MIC [18]: 71.7 µM (≈ 101 µg/mL)

Question: With CC[C@H](C)[C@H](N)C(=O)N[C@@H](CC(C)C)C(=O)NCC(=O)N[C@@H](Cc1c[nH]c2ccccc12)C(=O)N[C@@H](CCCCN)C(=O)N[C@@H](Cc1c[nH]c2ccccc12)C(=O)NCC(=O)N[C@@H](Cc1c[nH]c2ccccc12)C(=O)N[C@@H](Cc1c[nH]c2ccccc12)C(=O)NCC(=O)N[C@@H](Cc1c[nH]c2ccccc12)C(=O)N[C@@H](CCCN=C(N)N)C(=O)N[C@@H](CCCN=C(N)N)C(N)=O [ILGWKWGWWGWRR] as the compound, how does the MIC [19] read?
Answer: 0.4 µM (≈ 0.714 µg/mL)

Question: How did the MIC [19] turn out when CC[C@H](C)[C@H](N)C(=O)N[C@@H](CC(C)C)C(=O)N1CCC[C@H]1C(=O)N[C@@H](Cc1c[nH]c2ccccc12)C(=O)N[C@@H](CCCCN)C(=O)N[C@@H](Cc1c[nH]c2ccccc12)C(=O)N1CCC[C@H]1C(=O)N[C@@H](Cc1c[nH]c2ccccc12)C(=O)N[C@@H](C)C(=O)N1CCC[C@H]1C(=O)N[C@@H](Cc1c[nH]c2ccccc12)C(=O)N[C@@H](CCCN=C(N)N)C(=O)N[C@@H](CCCN=C(N)N)C(N)=O [ILPWKWPWAPWRR] was run?
Answer: 0.8 µM (≈ 1.43 µg/mL)

Question: For CC[C@H](C)[C@H](N)C(=O)N[C@@H](CC(C)C)C(=O)N1CCC[C@H]1C(=O)N[C@@H](Cc1c[nH]c2ccccc12)C(=O)N[C@@H](CCCCN)C(=O)N[C@@H](Cc1c[nH]c2ccccc12)C(=O)N1CCC[C@H]1C(=O)N[C@@H](Cc1c[nH]c2ccccc12)C(=O)N[C@@H](Cc1c[nH]c2ccccc12)C(N)=O [ILPWKWPWW], which MIC [19] is on record?
Answer: 1.6 µM (≈ 2.1 µg/mL)

Question: Which MIC [8] does the source give for CC[C@H](C)[C@H](N)C(=O)N[C@H](C(=O)N[C@H](C(=O)N1CCC[C@H]1C(=O)N1CCC[C@H]1C(=O)N[C@H](C(=O)N[C@H](C(=O)N[C@@H](CCCCN)C(=O)N[C@@H](CC(=O)O)C(=O)N[C@H](C(=O)N[C@@H](CC(C)C)C(=O)N[C@@H](CCCCN)C(=O)N[C@@H](CCCCN)C(=O)N[C@@H](Cc1ccccc1)C(=O)N[C@H](C(=O)N[C@@H](CCCCN)C(=O)NCC(=O)N[C@@H](C)C(=O)N[C@H](C(=O)N[C@@H](CO)C(=O)N[C@@H](CO)C(=O)N[C@H](C(=O)N[C@@H](CCSC)C(N)=O)C(C)C)[C@@H](C)CC)[C@@H](C)CC)[C@@H](C)O)C(C)C)[C@@H](C)CC)[C@@H](C)CC)[C@@H](C)O [ITIPPIVKDTLKKFIKGAISSVM] here?
Answer: ≥ 40 µM

Question: What about the MIC [9] of the same compound?
Answer: 20 µM (≈ 50 µg/mL)

Question: CC[C@H](C)[C@H](N)C(=O)N[C@H](C(=O)N[C@H](C(=O)N1CCC[C@H]1C(=O)N1CCC[C@H]1C(=O)N[C@H](C(=O)N[C@H](C(=O)N[C@@H](CCCCN)C(=O)N[C@@H](CC(N)=O)C(=O)N[C@H](C(=O)N[C@@H](CC(C)C)C(=O)N[C@@H](CCCCN)C(=O)N[C@@H](CCCCN)C(=O)N[C@@H](Cc1ccccc1)C(=O)N[C@H](C(=O)N[C@@H](CCCCN)C(=O)NCC(=O)N[C@@H](C)C(=O)N[C@H](C(=O)N[C@@H](CO)C(=O)N[C@@H](C)C(=O)N[C@@H](CC(C)C)C(=O)N[C@@H](CCSC)C(=O)N[C@@H](CO)C(=O)O)C(C)C)[C@@H](C)CC)[C@@H](C)O)C(C)C)[C@@H](C)CC)[C@@H](C)CC)[C@@H](C)O [ITIPPIVKNTLKKFIKGAVSALMS] was tested. Which MIC [8] did it give?
Answer: ≥ 40 µM

Question: What about the MIC [9] of the same compound?
Answer: 10 µM (≈ 25.7 µg/mL)

Question: With CSCC[C@H](NC(=O)CNC(=O)[C@H](Cc1ccccc1)NC(=O)[C@@H](N)CC(C)C)C(=O)N[C@@H](C)C(=O)N[C@@H](CC(C)C)C(=O)N[C@@H](CCCCN)C(=O)N[C@@H](CC(C)C)C(=O)N[C@@H](CC(C)C)C(=O)N[C@@H](CCCCN)C(=O)N[C@@H](CCCCN)C(=O)N[C@H](C(=O)N[C@@H](CC(C)C)C(N)=O)C(C)C [LFGMALKLLKKVL] as the compound, how does the MIC [14] read?
Answer: 3.8 µM (≈ 5.6 µg/mL)

Question: What about the MIC [15] of the same compound?
Answer: 2.3 µM (≈ 3.39 µg/mL)

Question: What about the MIC [16] of the same compound?
Answer: 1.5 µM (≈ 2.21 µg/mL)

Question: And the MIC [17]?
Answer: 10 µM (≈ 14.7 µg/mL)

Question: What about the MIC [18] of the same compound?
Answer: 50 µM (≈ 73.6 µg/mL)
